Assay results published in patent publication US20170050957A1, “4-AMINO-6-(HETEROCYCLIC)PICOLINATES AND 6-AMINO-2-(HETEROCYCLIC)PYRIMIDINE-4-CARBOXYLATES AND THEIR USE AS HERBICIDES” (Dow AgroSciences LLC, priority 2013, published 2017).
Read-outs that look alike come from different tables or passages of the source.

Assays:
[1] = test system: Key Broadleaf Weed and Crop Species; assay: Post-emergent Test II herbicidal activity (Table 15); format: in vivo; details: post-emergence, 336 h, 14 d; for pest or weed control at 35 g/ha: 35 g ai/ha; for pest or weed control at 70 g/ha: 70 g ai/ha; for pest or weed control at 140 g/ha: 140 g ai/ha
Method in brief: (§1)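 Visual injury rating (0 = none, 100% = complete kill) made 14 d after treatment, relative to untreated plants. Compounds in an acetone/DMSO/aqueous crop-oil/surfactant spray, at top rate and serial 1/2×-1/16× rates, were applied at 187 L/ha overhead to first-second true leaf plants raised 7-21 d in greenhouse.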

[2] = test system: Key Grass and Sedge Weeds as well as Grass Crops; assay: Post-emergent Test II herbicidal activity (Table 16); format: in vivo; details: post-emergence, 336 h, 14 d; for pest or weed control at 35 g/ha: 35 g ai/ha; for pest or weed control at 70 g/ha: 70 g ai/ha; for pest or weed control at 140 g/ha: 140 g ai/ha
Method in brief: as §1

[3] = Abutilon theophrasti, velvetleaf (Abutilon theophrasti), read-out: Visual Growth Reduction (%) 14 Days After Application, ABUTH
[4] = Amaranthus retroflexus, redroot pigweed (Amaranthus retroflexus), read-out: Visual Growth Reduction (%) 14 Days After Application, AMARE
[5] = Brassica napus, oilseed rape, canola (Brassica napus), read-out: Visual Growth Reduction (%) 14 Days After Application, BRSNN
[6] = Chenopodium album, lambsquarters (Chenopodium album), read-out: Visual Growth Reduction (%) 14 Days After Application, CHEAL
[7] = Euphorbia heterophylla, wild poinsettia (Euphorbia heterophylla), read-out: Visual Growth Reduction (%) 14 Days After Application, EPHHL
[8] = Helianthus annuus, sunflower (Helianthus annuus), read-out: Visual Growth Reduction (%) 14 Days After Application, HELAN
[9] = Cyperus esculentus, yellow nutsedge (Cyperus esculentus), read-out: Visual Growth Reduction (%) 14 Days After Application, CYPES
[10] = Echinochloa crus-galli, barnyardgrass (Echinochloa crus-galli), read-out: Visual Growth Reduction (%) 14 Days After Application, ECHCG
[11] = Oryza sativa, rice (Oryza sativa), read-out: Visual Growth Reduction (%) 14 Days After Application, ORYSA
[12] = Setaria faberi, giant foxtail (Setaria faberi), read-out: Visual Growth Reduction (%) 14 Days After Application, SETFA
[13] = Triticum aestivum, wheat, spring (Triticum aestivum), read-out: Visual Growth Reduction (%) 14 Days After Application, TRZAS
[14] = Zea mays, maize, corn (Zea mays), read-out: Visual Growth Reduction (%) 14 Days After Application, ZEAMX

## Nc1cc(-c2ccc3cc[nH]c3c2)nc(C(=O)O)c1Cl [Compound 1.22]
[1]; [3]
  pest or weed control at 35 g/ha: 0 to 29%
  pest or weed control at 70 g/ha: 0 to 29%
  pest or weed control at 140 g/ha: 0 to 29%
[1]; [4]
  pest or weed control at 35 g/ha: 75 to 84%
  pest or weed control at 70 g/ha: 75 to 84%
  pest or weed control at 140 g/ha: 85 to 94%
[1]; [5]
  pest or weed control at 35 g/ha: 45 to 59%
  pest or weed control at 70 g/ha: 60 to 74%
  pest or weed control at 140 g/ha: 60 to 74%
[1]; [6]
  pest or weed control at 35 g/ha: 0 to 29%
  pest or weed control at 70 g/ha: 0 to 29%
  pest or weed control at 140 g/ha: 0 to 29%
[1]; [7]
  pest or weed control at 35 g/ha: 45 to 59%
  pest or weed control at 70 g/ha: 75 to 84%
  pest or weed control at 140 g/ha: 85 to 94%
[1]; [8]
  pest or weed control at 35 g/ha: 75 to 84%
  pest or weed control at 70 g/ha: 85 to 94%
  pest or weed control at 140 g/ha: 85 to 94%
[2]; [9]
  pest or weed control at 35 g/ha: 0 to 29%
  pest or weed control at 70 g/ha: 0 to 29%
  pest or weed control at 140 g/ha: 0 to 29%
[2]; [10]
  pest or weed control at 35 g/ha: 0 to 29%
  pest or weed control at 70 g/ha: 0 to 29%
  pest or weed control at 140 g/ha: 0 to 29%
[2]; [11]
  pest or weed control at 35 g/ha: 0 to 29%
  pest or weed control at 70 g/ha: 0 to 29%
  pest or weed control at 140 g/ha: 0 to 29%
[2]; [12]
  pest or weed control at 35 g/ha: 0 to 29%
  pest or weed control at 70 g/ha: 60 to 74%
  pest or weed control at 140 g/ha: 85 to 94%
[2]; [13]
  pest or weed control at 35 g/ha: 0 to 29%
  pest or weed control at 70 g/ha: 0 to 29%
  pest or weed control at 140 g/ha: 0 to 29%
[2]; [14]
  pest or weed control at 35 g/ha: 0 to 29%
  pest or weed control at 70 g/ha: 0 to 29%
  pest or weed control at 140 g/ha: 0 to 29%
other
  melting point: 172 to 174 °C

## COC(=O)c1nc(-c2c(F)cc3cc[nH]c3c2F)cc(N)c1Cl [Compound 1.27, Methyl 4-amino-3-chloro-6-(5,7-difluoro-1H-indol-6-yl)picolinate]
[1]; [3]
  pest or weed control at 35 g/ha: 60 to 74%
  pest or weed control at 70 g/ha: 85 to 94%
  pest or weed control at 140 g/ha: 85 to 94%
[1]; [4]
  pest or weed control at 35 g/ha: 60 to 74%
  pest or weed control at 70 g/ha: 95 to 100%
  pest or weed control at 140 g/ha: 95 to 100%
[1]; [5]
  pest or weed control at 35 g/ha: 85 to 94%
  pest or weed control at 70 g/ha: 95 to 100%
  pest or weed control at 140 g/ha: 95 to 100%
[1]; [6]
  pest or weed control at 35 g/ha: 85 to 94%
  pest or weed control at 70 g/ha: 85 to 94%
  pest or weed control at 140 g/ha: 85 to 94%
[1]; [7]
  pest or weed control at 35 g/ha: 95 to 100%
  pest or weed control at 70 g/ha: 95 to 100%
  pest or weed control at 140 g/ha: 95 to 100%
[1]; [8]
  pest or weed control at 35 g/ha: 0 to 29%
  pest or weed control at 70 g/ha: 0 to 29%
  pest or weed control at 140 g/ha: 0 to 29%
[2]; [9]
  pest or weed control at 35 g/ha: 0 to 29%
  pest or weed control at 70 g/ha: 0 to 29%
  pest or weed control at 140 g/ha: 0 to 29%
[2]; [10]
  pest or weed control at 35 g/ha: 0 to 29%
  pest or weed control at 70 g/ha: 0 to 29%
  pest or weed control at 140 g/ha: 0 to 29%
[2]; [11]
  pest or weed control at 35 g/ha: 0 to 29%
  pest or weed control at 70 g/ha: 0 to 29%
  pest or weed control at 140 g/ha: 0 to 29%
[2]; [12]
  pest or weed control at 35 g/ha: 0 to 29%
  pest or weed control at 70 g/ha: 0 to 29%
  pest or weed control at 140 g/ha: 0 to 29%
[2]; [13]
  pest or weed control at 35 g/ha: 0 to 29%
  pest or weed control at 70 g/ha: 0 to 29%
  pest or weed control at 140 g/ha: 0 to 29%
[2]; [14]
  pest or weed control at 35 g/ha: 0 to 29%
  pest or weed control at 70 g/ha: 0 to 29%
  pest or weed control at 140 g/ha: 0 to 29%
other
  melting point: 169 to 171 °C

## COC(=O)c1nc(-c2ccc3cc[nH]c3c2)c(C)c(N)c1Cl [Compound 1.28]
[1]; [3]
  pest or weed control at 35 g/ha: 85 to 94%
  pest or weed control at 70 g/ha: 85 to 94%
  pest or weed control at 140 g/ha: 95 to 100%
[1]; [4]
  pest or weed control at 35 g/ha: 0 to 29%
  pest or weed control at 70 g/ha: 0 to 29%
  pest or weed control at 140 g/ha: 60 to 74%
[1]; [5]
  pest or weed control at 35 g/ha: 75 to 84%
  pest or weed control at 70 g/ha: 85 to 94%
  pest or weed control at 140 g/ha: 85 to 94%
[1]; [6]
  pest or weed control at 35 g/ha: 45 to 59%
  pest or weed control at 70 g/ha: 60 to 74%
  pest or weed control at 140 g/ha: 60 to 74%
[1]; [7]
  pest or weed control at 35 g/ha: 0 to 29%
  pest or weed control at 70 g/ha: 0 to 29%
  pest or weed control at 140 g/ha: 0 to 29%
[1]; [8]
  pest or weed control at 35 g/ha: 95 to 100%
  pest or weed control at 70 g/ha: 95 to 100%
  pest or weed control at 140 g/ha: 95 to 100%
[2]; [9]
  pest or weed control at 35 g/ha: 0 to 29%
  pest or weed control at 70 g/ha: 0 to 29%
  pest or weed control at 140 g/ha: 0 to 29%
[2]; [10]
  pest or weed control at 35 g/ha: 0 to 29%
  pest or weed control at 70 g/ha: 0 to 29%
  pest or weed control at 140 g/ha: 0 to 29%
[2]; [11]
  pest or weed control at 35 g/ha: 0 to 29%
  pest or weed control at 70 g/ha: 0 to 29%
  pest or weed control at 140 g/ha: 0 to 29%
[2]; [12]
  pest or weed control at 35 g/ha: 0 to 29%
  pest or weed control at 70 g/ha: 0 to 29%
  pest or weed control at 140 g/ha: 0 to 29%
[2]; [13]
  pest or weed control at 35 g/ha: 0 to 29%
  pest or weed control at 70 g/ha: 30 to 44%
  pest or weed control at 140 g/ha: 30 to 44%
[2]; [14]
  pest or weed control at 35 g/ha: 0 to 29%
  pest or weed control at 70 g/ha: 0 to 29%
  pest or weed control at 140 g/ha: 0 to 29%
other
  melting point: 231 to 234 °C
